In PMC5667507, “A novel ^18F-labelled high affinity agent for PET imaging of the translocator protein” (Chemical Science, 2015):

Tests used:
TSPO [1] = molecular target: TSPO; set-up: method as in PMID 20045646; conditions: printed in Fig. 2; cited from earlier work
[2] = used for HSA column calibration; ref literature (SI ref 3); cited from earlier work
[3] = molecular target: T1, human serum albumin (HSA) (Homo sapiens, UniProt P02768); assay: Human serum albumin (HSA) chromatography for %PPB; type: in vitro ADME; conditions: human serum albumin (HSA) coated HPLC column, read-out: %PPB (percentage of plasma protein binding) (converted)
T1 construct: purchased ChromTech HSA 5 µm (3.0 × 50 mm) column

[4] = Stability testing in phosphate buffered saline at 37 °C (HPLC); type: physicochemical; conditions: for Purity of Compound (stability testing): 1:1 PBS/acetonitrile, 37 °C
Method: The key physicochemical parameters of AB5186 6, permeability (P m), membrane partition coefficient (K m) and percentage of plasma protein binding (%PPB) were determined by high-performance liquid chromatography (HPLC) methods (Table 1).[23] […] As AB5186 6 contains a fluoroalkyl group, a potential alkylating agent, the stability of this compound was examined in simulated physiological conditions. […] The combination of a relatively strong C–F bond and the presence of bulky di-ortho-substituents impart a good level of stability.
3-(Fluoromethyl)-4-phenylquinoline-2-N-diethylcarboxamide (6) (2 mg, […]) was dissolved in a 1:1 mixture of […] phosphate buffered saline and acetonitrile (2 mL) and incubated at 37 ° C. 5 µL of the solution was injected onto the HPLC system (conditions described as below in section 7) at various time points (0, 1, 2, 4, 6 and 24 h). The purity of the compound at these time points was detemined by measuring the area under the peaks of the resultant UV

TSPO [5] = molecular target: T2, TSPO (Rattus norvegicus, UniProt P16257); assay: Competition binding assay, displacement of [3H]-PK11195 in rat brain homogenates; conditions: displacement of [3H]-PK11195, rat brain homogenates; mean ± SD of three independent experiments
T2 construct: Whole brains from male Sprague-Dawley rats (200–300 g) were obtained; from tissue; host or cells: whole brain of male Sprague-Dawley rats, washed membrane homogenate
From the text: Competition Binding Assays
(6 pictures or pasted objects on this page, not shown here)

T1 sequence (P02768 25-609): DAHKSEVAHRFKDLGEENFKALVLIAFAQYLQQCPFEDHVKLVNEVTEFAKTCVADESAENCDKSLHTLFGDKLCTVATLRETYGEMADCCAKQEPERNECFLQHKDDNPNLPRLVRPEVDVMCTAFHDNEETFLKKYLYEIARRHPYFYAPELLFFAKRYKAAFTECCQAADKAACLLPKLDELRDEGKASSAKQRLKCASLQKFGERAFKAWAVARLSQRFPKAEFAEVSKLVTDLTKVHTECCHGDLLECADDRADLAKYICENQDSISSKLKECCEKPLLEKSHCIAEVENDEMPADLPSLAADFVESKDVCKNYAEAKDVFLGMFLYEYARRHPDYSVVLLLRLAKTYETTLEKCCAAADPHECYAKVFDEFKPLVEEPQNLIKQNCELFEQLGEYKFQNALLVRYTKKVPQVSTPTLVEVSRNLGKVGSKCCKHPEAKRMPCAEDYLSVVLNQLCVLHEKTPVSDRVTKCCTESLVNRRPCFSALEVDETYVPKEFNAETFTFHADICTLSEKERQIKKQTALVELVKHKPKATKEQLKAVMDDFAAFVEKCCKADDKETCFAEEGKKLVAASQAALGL

For “4-(2-iodophenyl)quinoline-2-carboxamide [compound 5]”, the Ki (TSPO [1]) is given as 5.01 nM.

In the case of `CCCC1O[C@@H]2C[C@H]3[C@@H]4CCC5=CC(=O)C=C[C@]5(C)[C@H]4[C@@H](O)C[C@]3(C)[C@]2(C(=O)CO)O1` (stereo partly drawn) [budesonide], the “%PPB (literature value of calibration standard)” value (shortened to “%PPB”) [2] is listed as 88.0%.

`CCC(C)N(C)C(=O)c1cc2ccccc2c(-c2ccccc2Cl)n1` (stereo not drawn) [PK11195 1, reference compound] gave a fraction unbound at 0.5 mg/mL [3] of 0.085.

For `O=C1CN=C(c2ccccn2)c2cc(Br)ccc2N1` [bromazepam], the “%PPB” value [2] is listed as 60.0%.

For `CCN(CC)C(=O)c1nc2ccccc2c(-c2ccccc2)c1CF` [AB5186 6, 3-(Fluoromethyl)-4-phenylquinoline-2-N-diethylcarboxamide], the fraction unbound at 0.5 mg/mL [3] was 0.103, the “Purity of Compound (stability testing)” value ([4]; time 0 h) was 98.81% and the “Purity of Compound (stability testing)” value ([4]; time 1 h) was 98.75%. The “Purity of Compound (stability testing)” value ([4]; time 2 h) was 98.76%, the “Purity of Compound (stability testing)” value ([4]; time 4 h) was 98.80% and the “Purity of Compound (stability testing)” value ([4]; time 6 h) was 98.78%. The “Purity of Compound (stability testing)” value ([4]; time 24 h) was 91.94%, the decomposition ([4]; phosphate buffered saline pH 7.4, 37 °C, after 6 hours) was 0.03% and the Ki (TSPO [5]) was 2.8 ± 0.8 nM.

For “3-iodomethylquinoline-2-carboxamide [compound 4]”, the Ki (TSPO [1]) is given as 12 nM.

In the case of `CNC(=C[N+](=O)[O-])NCCSCc1csc(CN(C)C)n1` [nizatidine], the “%PPB” value [2] is given as 35.0%.
